Where two headings read alike, the source gives them in different places. Bounds are passed on as bounds.

The text below walks through data of US20250127898A1, “PHOTODYNAMIC THERAPY AND DIAGNOSIS” (RMW CHO Group Limited, priority 2021, published 2025).

In series [1] the test system is Human ovarian cancer cell line SKOV3. The series can be described thus: Phototoxicity in SKOV3 cells after 660 nm laser or LED activation (AlamarBlue viability). The format is cell-based. How it is done:
Samples were stored at 4° C. protected from light. […] All data are shown as mean±SD (where appropriate). […] Laser and LED exposure induce an equivalent response in relation to phototoxicity. Following activation, cells were cultured for a further 24 hours. Media was then replaced with fresh media containing AlamarBlue, and % viable cells remaining assessed as above. Controls included cells treated with reduced chlorin analogues but not activated by laser light; cells without reduced chlorin analogue treatment but with laser light; and untreated controls. All measurements were made in quadruplicate.
For orientation: The colour change of resazurin is a common sign of viable cells or microbes.

The test system is the same in series [2]. The series can be described thus: Inherent cytotoxicity (dark toxicity) in SKOV3 cells (AlamarBlue viability). The format is cell-based. How it is done:
Photosensitizers (e.g. chlorin analogue, chlorin e4 disodium (provided by Advanced Molecular Technologies, Scoresby) or Talaporfin sodium (purchased from Focus Bioscience cat #HY-16477-5MG)) were resuspended in 100% dimethylsulfoxide (DMSO) at a concentration of 5.5 mM. Samples were stored at 4° C. protected from light.
All data are shown as mean±SD (where appropriate).
Untreated cells were used as a control. […] All measurements were made in quadruplicate.

[3] abbreviates: Homo sapiens, SK-OV-3, light or radiation study, SKOV3 cancer cells, laser or LED, read-out: phototoxicity IC90.
Where [4] appears, read: Homo sapiens, SK-OV-3, light or radiation study, SKOV3 cells, 24 hours uptake, 660 nm laser, 50 mW/cm^2 for 5 mins (15 J/cm^2), viability 24 hours after activation, read-out: Phototoxicity μM (IC90).
The mark [5] stands for this setting: SKOV3 cells, 24 hours uptake, 660 nm laser, 50 mW/cm^2 for 5 mins (15 J/cm^2), viability 24 hours after activation, read-out: Phototoxicity μM (IC90).
The mark [6] stands for this setting: Homo sapiens, SK-OV-3, light or radiation study, SKOV3 cells, 24 hours uptake, 660 nm LED panel, 50 mW/cm^2 for 5 mins (15 J/cm^2), values marked *, read-out: Phototoxicity μM (IC90), measured by LED.
[7] abbreviates: SKOV3 cells, 24 hours incubation, no light activation.
Where [8] appears, read: SKOV3 cells, vs phyllochlorin free acid / phyllochlorin sodium salt.

`CCC1=C(C)c2cc3[nH]c(cc4nc(c(C)c5cc(C)c(cc1n2)[nH]5)[C@@H](CCC(=O)N(C)CCOCCOCC[n+]1ccccc1)[C@@H]4C)c(C)c3CC` [Compound 13, Reduced Phyllochlorin N-(2-(2-(2-pyridiniumethoxy)ethoxy)ethyl)-N-methyl-3-amide chloride]: the IC90 was at most 0.01 µM in series [1] (setting [3]) and 0.006 µM in series [1] (setting [4]). Also, the “Dark toxicity μM (IC10)” value in series [2] (human, 24 h) stood at 1.260 µM.
Consider `CCC1=C(C)c2cc3[nH]c(cc4nc(c(C)c5[nH]c(cc1n2)c(C)c5C(=O)O)[C@@H](CCC(=O)O)[C@@H]4C)c(C)c3CC` [Compound 36, Reduced Chlorin e4], for which the IC90 in series [1] (setting [4]) came to 4.36 µM. The “Dark toxicity μM (IC10)” value in series [2] (human, 24 h) was 12.200 µM.
The like results for `CCC1=C(C)c2cc3[nH]c(cc4nc(c(C)c5cc(C)c(cc1n2)[nH]5)[C@@H](CCC(=O)N(C)CCOCCOCCO)[C@@H]4C)c(C)c3CC` [Compound 12, Reduced Phyllochlorin N-(2-(2-(2-hydroxyethoxy)ethoxy)ethyl)-N-methyl-3-amide] were, in that order, 0.078 µM and 5.975 µM.
In the case of “Reduced Phyllochlorin N-(2-(2-hydroxyethoxy)ethyl)-N-methylpropylamide [Compound 7]”, the IC90 in series [1] (setting [5]) was 0.036 µM. Moreover, in series [2], the “Dark toxicity μM (IC10)” value amounted to 26.100 µM.
For the molecule `CCC1=C(C)c2cc3[nH]c(cc4nc(c(C)c5cc(C)c(cc1n2)[nH]5)[C@@H](CCC(=O)N(C)CCC[S+]([O-])[C@@H]1O[C@H](CO)[C@@H](O)[C@H](O)[C@H]1O)[C@@H]4C)c(C)c3CC` (stereo partly drawn) [Compound 17, Reduced Phyllochlorin β-D-1-thioglucose-N-methylpropylamide sulfoxide], the IC90 in series [1] (setting [4]) turned out to be 0.174 µM. Also, the “Dark toxicity μM (IC10)” value in series [2] (human, 24 h) was 4.752 µM.
In the same order, the values of `CCC1=C(C)c2cc3[nH]c(cc4nc(c(C)c5cc(C)c(cc1n2)[nH]5)[C@@H](CCC(=O)N(C)CCO)[C@@H]4C)c(C)c3CC` [Compound 19, Reduced Phyllochlorin N-2-hydroxyethyl-N-methyl propylamide] are 0.061 µM and 15.940 µM.
On to `CCC1=C(C)c2cc3[nH]c(cc4nc(c(C)c5cc(C)c(cc1n2)[nH]5)[C@@H](CCC[P+](c1ccccc1)(c1ccccc1)c1ccccc1)[C@@H]4C)c(C)c3CC` [Compound 27, Reduced Phyllochlorin 3-triphenylphosphonium Propyl Iodide], for which the IC90 is at most 0.01 µM in series [1] (setting [3]) and 0.0055 µM in series [1] (setting [6]). The “Dark toxicity μM (IC10)” value in series [2] (human, 24 h) was 1.326 µM.
`CCC1=C(C)c2cc3[nH]c(cc4nc(c(C)c5cc(C)c(cc1n2)[nH]5)[C@@H](CCC(=O)N(C)CCCS[C@@H]1O[C@H](CO)[C@@H](O)[C@H](O)[C@H]1O)[C@@H]4C)c(C)c3CC` [Compound 4, Reduced Phyllochlorin β-D-1-thioglucose-N-methylpropylamide]: the IC90 in series [1] (setting [4]) is 0.068 µM. Also, the “Dark toxicity μM (IC10)” value in series [2] (human, 24 h) was determined as 2.780 µM.
The like results for `CCC1=C(C)c2cc3[nH]c(cc4nc(c(C)c5cc(C)c(cc1n2)[nH]5)[C@@H](CCC(=O)N(C)CCOCCOCC[P+](c1ccccc1)(c1ccccc1)c1ccccc1)[C@@H]4C)c(C)c3CC` [Compound 16, Reduced Phyllochlorin N-(2-(2-(2-triphenylphosphoniumethoxy)ethoxy)ethyl)-N-methyl-3-amide chloride] were, in that order, 0.011 µM and 3.205 µM.
As to `CCC1=C(C)c2cc3[nH]c(cc4nc(c(C)c5cc(C)c(cc1n2)[nH]5)[C@@H](CCCN)[C@@H]4C)c(C)c3CC` [Compound 18, Reduced Phyllochlorin 3-aminopropyl], the IC90 is at most 0.01 µM in series [1] (setting [3]) and 0.01 µM in series [1] (setting [4]). For the same molecule, the “Dark toxicity μM (IC10)” value in series [2] (human, 24 h) stood at 3.946 µM.
On to `CCC1=C(C)c2cc3[nH]c(cc4nc(c(C)c5cc(C)c(cc1n2)[nH]5)[C@@H](CCC(=O)N(C)CCOCCOCCOCCOCCOCCOC)[C@@H]4C)c(C)c3CC` [Compound 14, Reduced Phyllochlorin N-methyl-N-3,6,9,12,15,18-hexaoxanonadecyl propylamide], for which the IC90 in series [1] (setting [4]) turned out to be 0.161 µM. Besides, the “Dark toxicity μM (IC10)” value in series [2] (human, 24 h) was found to be 3.940 µM.
For `CCC1=C(C)c2cc3[nH]c(cc4nc(c(C)c5cc(C)c(cc1n2)[nH]5)[C@@H](CCC(=O)N[C@@H]1C(O)O[C@H](CO)[C@@H](O)[C@@H]1O)[C@@H]4C)c(C)c3CC` (stereo partly drawn) [Compound 15, Reduced Phyllochlorin 2-deoxy-D-mannosamine-propylamide], the IC90 in series [1] (setting [4]) was 0.07 µM. Also, the “Dark toxicity μM (IC10)” value in series [2] (human, 24 h) was 5.400 µM.
The like results for `CCC1=C(C)c2cc3[nH]c(cc4nc(c(C)c5cc(C)c(cc1n2)[nH]5)[C@@H](CCC(=O)N(C)CCCCCO)[C@@H]4C)c(C)c3CC` [Compound 23, Reduced Phyllochlorin N-5-hydroxypentyl-N-methyl Propylamide] were, in that order, 0.064 µM and 4.540 µM.
The like results for `CCC1=C(C)c2cc3[nH]c(cc4nc(c(C)c5cc(C)c(cc1n2)[nH]5)[C@@H](CCC(=O)N(C)CCCO)[C@@H]4C)c(C)c3CC` [Compound 22, Reduced Phyllochlorin N-3-hydroxypropyl-N-methyl Propylamide] were, in that order, 0.042 µM and 4.348 µM.
`CCC1=C(C)c2cc3[nH]c(cc4nc(c5c6[nH]c(cc1n2)c(C)c6C(=O)OC5)[C@@H](CCC(=O)N(C)CCCS[C@@H]1O[C@H](CO)[C@@H](O)[C@H](O)[C@H]1O)[C@@H]4C)c(C)c3CC` [Compound 40, Reduced Chlorin K β-D-1-thioglucose-N-methylpropylamide]: the concentration for an effect of 90% (IC90) in series [1] (setting [6]) is 0.229 µM. In series [2] (human, 24 h), the “Dark toxicity μM (IC10)” value turned out to be 3.222 µM.
For “Phyllochlorin sodium salt [reference compound]”, in series [1] (setting [5]), the IC90 was 0.35 µM. In addition, the “Dark toxicity μM (IC10)” value in series [2] (setting [7]) was found to be 21.96 µM.
Turning to “Reduced Phyllochlorin N-(2-(2-(2-picolinylethoxy)ethoxy)ethyl)-N-methyl-3-amide chloride [Compound 28]”, the IC90 in series [1] (SKOV3 cells, 24 hours uptake, 660 nm LED panel, 50 mW/cm^2 for 5 mins (15 J/cm^2), values marked *, read-out: Phototoxicity μM (IC90), measured by LED) stood at 0.0326 µM. The “Dark toxicity μM (IC10)” value in series [2] (setting [7]) is 1.510 µM.
As to `CCC1=C(C)c2cc3[nH]c(cc4nc(c(C)c5cc(C)c(cc1n2)[nH]5)[C@@H](CCC(=O)[O-])[C@@H]4C)c(C)c3CC.[Na+]` [Compound 2, Reduced Phyllochlorin Sodium Salt], the IC90 in series [1] (setting [4]) was 0.071 µM. Besides, in series [1] (setting [8]), the “increase in phototoxicity of meso-compound compared to non-meso analogue” value is on record as 4.9 fold. Also, the “Dark toxicity μM (IC10)” value in series [2] (setting [7]) worked out at 47.840 µM. For the same molecule, in series [2] (setting [8]), the “Dark toxicity compared to non-meso analogue” value is “largely unaffected”.
`C=Cc1c(C)c2cc3nc(c(CC(=O)N[C@@H](CC(=O)O)C(=O)O)c4[nH]c(cc5nc(cc1[nH]2)C(C)=C5CC)c(C)c4C(=O)O)[C@@H](CCC(=O)O)[C@@H]3C` [Talaporfin sodium, reference compound]: the “Dark toxicity μM (IC10)” value in series [2] (human, 24 h) turned out to be 11.10 µM.
Turning to `CCC1=C(C)c2cc3[nH]c(cc4nc(c(C)c5cc(C)c(cc1n2)[nH]5)[C@@H](CCC(=O)N[C@H]1C(O)O[C@H](CO)[C@H](O)[C@@H]1O)[C@@H]4C)c(C)c3CC` (stereo partly drawn) [Compound 24, Reduced Phyllochlorin 2-deoxy-D-galactosamine-propylamide], in series [1] (setting [4]), the IC90 is 0.049 µM. In series [2] (human, 24 h), the “Dark toxicity μM (IC10)” value came to 7.011 µM.
In the same order, the values of `CCC1=C(C)c2cc3[nH]c(cc4nc(c(C)c5cc(C)c(cc1n2)[nH]5)[C@@H](CCCO)[C@@H]4C)c(C)c3CC` [Compound 20, Reduced Phyllochlorin 3-hydroxypropyl] are 0.063 µM and 5.825 µM.
The like results for `CCC1=C(C)c2cc3[nH]c(cc4nc(c(C)c5cc(C)c(cc1n2)[nH]5)[C@@H](CCC(=O)N(C)CCOCCO[C@@H]1O[C@H](CO)[C@@H](O)[C@H](O)[C@H]1O)[C@@H]4C)c(C)c3CC` [Compound 5, Reduced Phyllochlorin β-D-1-glucose-N-methyl-2-ethoxy-N-ethanamine] were, in that order, 0.102 µM and 18.440 µM.
With `CCC1=C(C)c2cc3[nH]c(cc4nc(c5c6[nH]c(cc1n2)c(C)c6C(=O)OC5)[C@@H](CCC(=O)O)[C@@H]4C)c(C)c3CC` [Compound 39, Reduced Chlorin K], in series [1] (setting [6]), the IC90 is 0.141 µM. Besides, the “Dark toxicity μM (IC10)” value in series [2] (human, 24 h) came out at 6.613 µM.
Take `CCC1=C(C)c2cc3[nH]c(cc4nc(c(C)c5cc(C)c(cc1n2)[nH]5)[C@@H](CCC(=O)N[C@H]1C(O)O[C@H](CO)[C@@H](O)[C@@H]1O)[C@@H]4C)c(C)c3CC` (some centres unmarked) [Compound 3, Reduced Phyllochlorin 2-deoxyglucosamine-propylamide]: in series [1] (setting [4]), the IC90 was determined as 0.043 µM. The “Dark toxicity μM (IC10)” value in series [2] (human, 24 h) is 13.330 µM.
For `CCC1=C(C)c2cc3[nH]c(cc4nc(c(C)c5cc(C)c(cc1n2)[nH]5)[C@@H](CCC(=O)N(C)C[C@H](O)[C@@H](O)[C@H](O)[C@H](O)CO)[C@@H]4C)c(C)c3CC` [Compound 10, Reduced Phyllochlorin N-meglumine-propylamide], the “Dark toxicity μM (IC10)” value in series [2] (human, 24 h) was 4.905 µM.

One may read the IC90 as the concentration needed for an effect of 90%.
